Source: the NIST ThermoML archive (doi:10.1016/j.fluid.2014.09.014)

Test: xn = mol fraction of the nth substance listed
Conditions: 101 kPa, Liquid, mechanical oscillator

CC(C)OC(C)C [diisopropyl ether] + CC(C)O
mass density [kg/m3]
Conditions | 293.15 K | 298.15 K | 303.15 K | 308.15 K | 313.15 K | 318.15 K
x1 = 0.0277 | 784.54 | 780.15 | 775.28 | 770.51 | 766.2 | –
x1 = 0.0507 | 783.14 | 778.52 | 773.7 | 769.05 | 764.54 | 759.23
x1 = 0.051 | 783.12 | – | 773.67 | 769.05 | 764.52 | 759.21
x1 = 0.0717 | 781.73 | 776.95 | 772.14 | 767.56 | 762.92 | 757.56
x1 = 0.1528 | 775.51 | 770.53 | 765.48 | 760.84 | 756.03 | 750.75
x1 = 0.1938 | 772.05 | – | 761.88 | 757.06 | – | –
x1 = 0.2029 | 771.28 | 766.41 | 761.07 | 756.2 | 751.49 | 746.41
x1 = 0.245 | 767.66 | 762.95 | 757.34 | 752.2 | 747.64 | 742.79
x1 = 0.297 | – | 758.78 | 752.77 | 747.3 | 742.94 | 738.39
x1 = 0.3068 | 762.42 | 758.01 | 751.96 | 746.39 | 742.11 | 737.61
x1 = 0.398 | 755.24 | 751.23 | 744.62 | 738.38 | 734.56 | 730.51
x1 = 0.4609 | 750.87 | 747.02 | 740.13 | 733.51 | 729.95 | 726.09
x1 = 0.5434 | 745.99 | 742.15 | 735.09 | 728.12 | 724.76 | 720.95
x1 = 0.6032 | 743.03 | 739.05 | 732 | 724.92 | 721.58 | 717.67
x1 = 0.6371 | 741.54 | 737.43 | 730.43 | 723.33 | 719.96 | 715.94
x1 = 0.701 | 738.99 | – | – | – | – | –
x1 = 0.754 | 737.02 | 732.28 | 725.68 | 718.81 | 715.06 | 710.5
x1 = 0.791 | – | 730.68 | 724.25 | 717.51 | 713.58 | 708.82
x1 = 0.8296 | 734.1 | 728.95 | 722.69 | 716.11 | 711.97 | 707.02
x1 = 0.8903 | 731.31 | 725.97 | 719.93 | 713.61 | 709.12 | 703.97
x1 = 0.9113 | 730.18 | 724.83 | 718.84 | 712.6 | 707.99 | 702.81
x1 = 0.9547 | 727.49 | 722.2 | 716.27 | 710.18 | 705.35 | 700.18
x1 = 0.973 | 726.17 | 720.98 | 715.03 | 708.99 | 704.08 | 698.96
x1 = 0.9771 | 725.86 | 720.69 | 714.73 | 708.7 | 703.78 | 698.67
x1 = 1 | 723.86 | 718.3 | 712.68 | 707.06 | 701.5 | 696.98

CC(C)OC(C)C [diisopropyl ether] + CO
mass density [kg/m3]
Conditions | 293.15 K | 298.15 K | 303.15 K | 308.15 K | 313.15 K | 318.15 K
x2 = 0 | 723.86 | 718.3 | 712.68 | 707.06 | 701.5 | 696.98
x2 = 0.0423 | 725.34 | 720.12 | – | 708.61 | 702.92 | 698.39
x2 = 0.0424 | 725.34 | 720.13 | 714.26 | 708.63 | 702.94 | 698.41
x2 = 0.082 | 727.36 | 722.06 | 716.26 | 710.51 | 704.95 | 699.97
x2 = 0.0822 | 727.37 | 722.07 | 716.27 | 710.52 | 704.96 | 699.98
x2 = 0.1171 | 729.04 | 723.73 | 717.96 | 712.26 | 706.79 | 701.61
x2 = 0.1271 | 729.5 | 724.19 | 718.43 | 712.74 | 707.29 | 702.07
x2 = 0.1827 | 731.99 | 726.76 | 720.98 | 715.35 | 709.93 | 704.6
x2 = 0.2162 | 733.44 | 728.28 | 722.47 | 716.86 | 711.42 | 706.1
x2 = 0.251 | 734.94 | 729.84 | 723.99 | 718.4 | 712.93 | 707.66
x2 = 0.3298 | 738.41 | 733.39 | 727.46 | 721.88 | 716.3 | 711.24
x2 = 0.3577 | 739.69 | – | 728.71 | 723.14 | 717.52 | 712.55
x2 = 0.445 | – | – | 733.04 | – | – | –
x2 = 0.4525 | 744.38 | 739.19 | 733.18 | 727.64 | 721.96 | 717.21
x2 = 0.522 | 748.28 | – | 736.82 | 731.34 | 725.66 | 720.99
x2 = 0.5543 | 750.25 | 744.6 | 738.65 | 733.22 | 727.56 | 722.88
x2 = 0.609 | 753.85 | 747.88 | 742.01 | 736.67 | 731.07 | 726.33
x2 = 0.6529 | 756.99 | 750.75 | 744.97 | 739.73 | 734.2 | 729.37
x2 = 0.7504 | 764.78 | 758.11 | 752.58 | 747.61 | 742.24 | 737.12
x2 = 0.804 | 769.56 | 762.86 | 757.48 | 752.69 | – | –
x2 = 0.807 | 769.84 | 763.14 | 757.78 | – | 747.67 | 742.4
x2 = 0.8727 | 776.23 | 769.84 | 764.66 | 760.14 | 754.77 | 749.37
x2 = 0.9253 | 781.7 | 775.96 | 770.89 | 766.58 | 761.06 | 755.7
x2 = 0.9527 | 784.68 | 779.45 | 774.42 | 770.23 | 764.57 | 759.3
x2 = 0.9773 | 787.42 | 782.77 | 777.76 | 773.67 | 767.86 | 762.7
x2 = 0.989 | – | 784.41 | 779.41 | 775.36 | 769.46 | 764.38
x2 = 0.9964 | – | – | – | 776.46 | 770.49 | –
